The values that follow come from patent US20260000692A1, “Substituted N-(Pyridin-2-yl)Acetamide Derivatives as CDK12/13 Inhibitors” (Aurigene Oncology Limited, priority 2022, published 2026).

The target of this assay is CDK12 (Homo sapiens, UniProt Q9NYV4). Nature of the assay: Biochemical assay for CDK12 (LANCE TR-FRET, IC50 determination). To be noted: for IC50: CDK12, IC50 class, read-out: IC50 μM (in range); for inhibition at 10 µM: read-out: CDK12 % Inhibition @ 10 μM; for inhibition at 2 µM: compound at 2 μM (stated in the cell, not the 10 μM of the column head). In outline: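 30 nM CDK12 phosphorylated 100 nM ULight-4E-BP1 (Thr37/Thr46) peptide at 100 µM ATP, as printed, in HEPES pH 7.5 buffer with MgCl2 and DTT. Compound and enzyme were preincubated 60 min, then reacted 60 min at room temperature before stopping with EDTA and Eu anti-phospho antibody. TR-FRET 665/615 ratio gave sigmoidal IC50 fits.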
A general note: Time-resolved FRET reads energy transfer from a long-lived donor to a nearby acceptor.

Chain of CDK12 (Q9NYV4 whole entry): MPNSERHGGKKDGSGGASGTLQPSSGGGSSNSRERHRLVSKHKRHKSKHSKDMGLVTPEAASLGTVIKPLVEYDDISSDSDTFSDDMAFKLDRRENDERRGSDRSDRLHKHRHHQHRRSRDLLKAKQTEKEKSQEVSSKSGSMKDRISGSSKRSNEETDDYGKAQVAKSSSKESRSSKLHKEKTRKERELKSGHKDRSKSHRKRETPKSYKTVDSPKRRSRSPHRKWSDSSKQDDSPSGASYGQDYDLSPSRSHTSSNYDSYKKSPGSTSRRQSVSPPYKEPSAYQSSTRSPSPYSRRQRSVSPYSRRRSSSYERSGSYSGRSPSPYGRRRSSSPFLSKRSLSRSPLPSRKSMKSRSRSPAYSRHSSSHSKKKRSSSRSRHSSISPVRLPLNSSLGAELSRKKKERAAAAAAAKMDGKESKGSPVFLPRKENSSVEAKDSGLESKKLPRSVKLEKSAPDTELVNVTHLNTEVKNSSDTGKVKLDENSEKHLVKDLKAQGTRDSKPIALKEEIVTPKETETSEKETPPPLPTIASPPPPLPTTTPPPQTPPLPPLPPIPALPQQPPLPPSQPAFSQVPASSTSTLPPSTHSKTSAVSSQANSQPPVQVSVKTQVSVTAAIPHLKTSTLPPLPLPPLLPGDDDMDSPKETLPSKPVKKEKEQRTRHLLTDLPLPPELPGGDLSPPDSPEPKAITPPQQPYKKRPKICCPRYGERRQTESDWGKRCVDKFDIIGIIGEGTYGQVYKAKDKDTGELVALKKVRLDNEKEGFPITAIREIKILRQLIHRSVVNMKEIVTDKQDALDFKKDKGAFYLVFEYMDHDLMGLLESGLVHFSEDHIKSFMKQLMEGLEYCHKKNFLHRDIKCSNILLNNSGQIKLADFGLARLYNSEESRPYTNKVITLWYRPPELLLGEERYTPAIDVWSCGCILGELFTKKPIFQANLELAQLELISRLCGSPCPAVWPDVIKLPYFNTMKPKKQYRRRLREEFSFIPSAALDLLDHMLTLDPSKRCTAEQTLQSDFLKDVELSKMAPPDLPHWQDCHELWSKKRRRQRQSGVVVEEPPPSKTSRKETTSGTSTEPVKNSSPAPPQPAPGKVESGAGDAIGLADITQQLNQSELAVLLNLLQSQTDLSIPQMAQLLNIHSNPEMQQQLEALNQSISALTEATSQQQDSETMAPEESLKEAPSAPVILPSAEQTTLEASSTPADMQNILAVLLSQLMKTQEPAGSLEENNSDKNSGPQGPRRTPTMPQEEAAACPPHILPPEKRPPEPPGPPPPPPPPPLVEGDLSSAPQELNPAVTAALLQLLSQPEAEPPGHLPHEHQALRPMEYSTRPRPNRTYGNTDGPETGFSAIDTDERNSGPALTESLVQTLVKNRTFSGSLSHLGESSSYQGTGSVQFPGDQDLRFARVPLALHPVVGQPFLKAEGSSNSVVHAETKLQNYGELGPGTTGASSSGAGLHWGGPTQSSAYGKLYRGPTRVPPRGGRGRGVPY
Chain of CDK12 (O75909 whole entry partner): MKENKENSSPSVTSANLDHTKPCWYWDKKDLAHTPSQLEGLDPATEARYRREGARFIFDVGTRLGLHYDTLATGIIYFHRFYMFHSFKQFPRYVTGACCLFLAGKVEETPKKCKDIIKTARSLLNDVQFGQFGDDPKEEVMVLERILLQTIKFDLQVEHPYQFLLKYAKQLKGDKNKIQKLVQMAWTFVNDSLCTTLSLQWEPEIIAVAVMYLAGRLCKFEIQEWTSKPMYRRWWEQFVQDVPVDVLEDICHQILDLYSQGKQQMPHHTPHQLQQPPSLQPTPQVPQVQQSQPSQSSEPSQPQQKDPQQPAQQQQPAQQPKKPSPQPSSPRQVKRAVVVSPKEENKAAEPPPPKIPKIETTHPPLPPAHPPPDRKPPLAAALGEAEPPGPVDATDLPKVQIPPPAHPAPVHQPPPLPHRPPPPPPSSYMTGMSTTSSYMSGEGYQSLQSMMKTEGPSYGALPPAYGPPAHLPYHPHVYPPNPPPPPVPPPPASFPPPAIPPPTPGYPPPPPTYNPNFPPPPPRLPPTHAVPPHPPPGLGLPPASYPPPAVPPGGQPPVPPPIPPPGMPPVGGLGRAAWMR

A word on the IC50: it is the concentration at which inhibition is half-maximal. By inhibition is commonly meant how much of the control response was suppressed. On to `COc1cc(NC(=O)Cc2ccc(-c3cncc(C#N)n3)nc2)ncc1Cl` [Compound 157, N-(5-chloro-4-methoxypyridin-2-yl)-2-(6-(6-cyanopyrazin-2-yl)pyridin-3-yl)acetamide], for which the IC50 is less than 0.01 µM. Moreover, the inhibition at 10 µM (compound at 10 μM) came out at 84%.

Turning to `COc1cc(NC(=O)Cc2ccc(-c3ccc(C)c(C#N)n3)nc2)ncc1Cl` [Compound 158, N-(5-chloro-4-methoxypyridin-2-yl)-2-(6′-cyano-5′-methyl-[2,2′-bipyridin]-5-yl)acetamide], the IC50 is more than 0.1 µM and the inhibition at 2 µM was determined as 70%.

With `COc1cc(NC(=O)Cc2ccc(-c3cc(C)cc(C#N)n3)nc2)ncc1Cl` [Compound 159, N-(5-chloro-4-methoxypyridin-2-yl)-2-(6′-cyano-4′-methyl-[2,2′-bipyridin]-5-yl)acetamide], the IC50 is 0.01 to 0.1 µM and the inhibition at 2 µM turned out to be 90%.

For `COc1cc(NC(=O)Cc2ccc(-c3nc(C#N)ccc3C)nc2)ncc1Cl` [Compound 160, N-(5-chloro-4-methoxypyridin-2-yl)-2-(6′-cyano-3′-methyl-[2,2′-bipyridin]-5-yl)acetamide], the half-inhibitory concentration (IC50) was more than 0.1 µM. In addition, the inhibition at 10 µM (compound at 10 μM) came to 76%.

Consider `COc1cc(C#N)nc(-c2ccc(CC(=O)Nc3cc(OC)c(Cl)cn3)cn2)c1` [Compound 165, N-(5-chloro-4-methoxypyridin-2-yl)-2-(6′-cyano-4′-methoxy-[2,2′-bipyridin]-5-yl)acetamide], for which the IC50 is 0.01 to 0.1 µM. In addition, the inhibition at 10 µM (compound at 10 μM) turned out to be 72%.

`COCCOc1cc(C#N)nc(-c2ccc(CC(=O)Nc3cc(OC)c(Cl)cn3)cn2)c1` [Compound 169, N-(5-chloro-4-methoxypyridin-2-yl)-2-(6′-cyano-4′-(2-methoxyethoxy)-[2,2′-bipyridin]-5-yl)acetamide]: the IC50 is 0.01 to 0.1 µM. In addition, for the setting “compound at 10 μM”, the inhibition at 10 µM worked out at 95%.

Take `COc1cc(NC(=O)Cc2ccc(-c3cc(OCCN(C)C)cc(C#N)n3)nc2)ncc1Cl` [Compound 170, N-(5-chloro-4-methoxypyridin-2-yl)-2-(6′-cyano-4′-(2-(dimethylamino)ethoxy)-[2,2′-bipyridin]-5-yl)acetamide]: the IC50 lay within 0.01 to 0.1 µM. Also, the inhibition at 10 µM (compound at 10 μM) was found to be 90%.

On to `COc1cc(NC(=O)Cc2ccc(-c3cc(OC4CCN(C)C4)cc(C#N)n3)nc2)ncc1Cl` (stereo not shown) [Compound 171, N-(5-chloro-4-methoxypyridin-2-yl)-2-(6′-cyano-4′-((1-methylpyrrolidin-3-yl)oxy)-[2,2′-bipyridin]-5-yl)acetamide], for which the IC50 was less than 0.01 µM. Besides, for the setting “compound at 10 μM”, the inhibition at 10 µM came out at 83%.

Take `COc1cc(NC(=O)Cc2ccc(-c3cc(N(C)CCN(C)C)cc(C#N)n3)nc2)ncc1Cl` [Compound 173]: the IC50 was 0.01 to 0.1 µM. The inhibition at 10 µM (compound at 10 μM) amounted to 90%.

Turning to `COc1cc(NC(=O)Cc2ccc(-c3cc(C(C)(C)O)cc(C#N)n3)nc2)ncc1Cl` [Compound 175, N-(5-chloro-4-methoxypyridin-2-yl)-2-(6′-cyano-4′-(2-hydroxypropan-2-yl)-[2,2′-bipyridin]-5-yl)acetamide], the concentration for half-maximal inhibition (IC50) is 0.01 to 0.1 µM. The inhibition at 10 µM (compound at 10 μM) amounted to 97%.

With `COc1cc(NC(=O)Cc2ccc(-c3cc(OC4CCN(C)CC4)cc(C#N)n3)nc2)ncc1Cl` [Compound 176, N-(5-chloro-4-methoxypyridin-2-yl)-2-(6′-cyano-4′-((1-methylpiperidin-4-yl)oxy)-[2,2′-bipyridin]-5-yl)acetamide], the IC50 was in the range of 0.01 to 0.1 µM. In addition, the inhibition at 10 µM (compound at 10 μM) is 96%.

As for `COc1cc(NC(=O)Cc2ccc(-c3cc(N4CC5CC4CN5C)cc(C#N)n3)nc2)ncc1Cl` (stereo not shown) [Compound 181, N-(5-chloro-4-methoxypyridin-2-yl)-2-(6′-cyano-4′-(5-methyl-2,5-diazabicyclo[2.2.1]heptan-2-yl)-[2,2′-bipyridin]-5-yl)acetamide], the IC50 lay in the range of 0.01 to 0.1 µM. In addition, for the setting “compound at 10 μM”, the inhibition at 10 µM was 92%.

`COc1cc(NC(=O)Cc2ccc(-c3cc(N4CC(O)C4)cc(C#N)n3)nc2)ncc1Cl` [Compound 182, N-(5-chloro-4-methoxypyridin-2-yl)-2-(6′-cyano-4′-(3-hydroxyazetidin-1-yl)-[2,2′-bipyridin]-5-yl)acetamide]: the concentration for half-maximal inhibition (IC50) is more than 0.1 µM. For the same molecule, where the note is “compound at 10 μM”, the inhibition at 10 µM is 75%.

Consider `COc1cc(NC(=O)Cc2ccc(-c3cc(OC4COC4)cc(C#N)n3)nc2)ncc1Cl` [Compound 184, N-(5-chloro-4-methoxypyridin-2-yl)-2-(6′-cyano-4′-(oxetan-3-yloxy)-[2,2′-bipyridin]-5-yl)acetamide], for which the IC50 was 0.01 to 0.1 µM. Where the note is “compound at 10 μM”, the inhibition at 10 µM came to 80%.

For `COc1cc(NC(=O)Cc2ccc(-c3ccc(C#N)cc3)nc2)ncc1Cl` [Compound 188, N-(5-chloro-4-methoxypyridin-2-yl)-2-(6-(4-cyanophenyl)pyridin-3-yl)acetamide], the IC50 is more than 0.1 µM. Besides, the inhibition at 10 µM (compound at 10 μM) stood at 65%.

As to `COc1cc(NC(=O)Cc2ccc(-c3cccc(C#N)c3)nc2)ncc1Cl` [Compound 189, N-(5-chloro-4-methoxypyridin-2-yl)-2-(6-(3-cyanophenyl)pyridin-3-yl)acetamide], the IC50 was more than 0.1 µM. The inhibition at 10 µM (compound at 10 μM) was 82%.

Regarding `CNC(=O)[C@H](C)Oc1cc(NC(=O)Cc2ccc(-c3cccc(C#N)n3)nc2)ncc1Cl` [Compound 190, 2-((5-chloro-2-(2-(6′-cyano-[2,2′-bipyridin]-5-yl)acetamido)pyridin-4-yl)oxy)-N-methylpropanamide], the IC50 is less than 0.01 µM. In addition, for the setting “compound at 10 μM”, the inhibition at 10 µM was found to be 87%.

For the molecule `COc1cc(NC(=O)Cc2ccc(-c3cc(N4CCN(C)CC4)cc(C#N)n3)nc2)ncc1Cl` [Compound 191, N-(5-chloro-4-methoxypyridin-2-yl)-2-(6′-cyano-4′-(4-methylpiperazin-1-yl)-[2,2′-bipyridin]-5-yl)acetamide], the IC50 was 0.01 to 0.1 µM. For the same molecule, the inhibition at 10 µM (compound at 10 μM) is 94%.

Consider `COc1cc(NC(=O)Cc2ccc(-c3cc(N4CCC(C)(O)CC4)cc(C#N)n3)nc2)ncc1Cl` [Compound 192, N-(5-chloro-4-methoxypyridin-2-yl)-2-(6′-cyano-4′-(4-hydroxy-4-methylpiperidin-1-yl)-[2,2′-bipyridin]-5-yl)acetamide], for which the IC50 fell in the range of 0.01 to 0.1 µM. Moreover, the inhibition at 10 µM (compound at 10 μM) amounted to 88%.

Turning to `COc1cc(NC(=O)Cc2ccc(-c3cc(N4CC(OC)C4)cc(C#N)n3)nc2)ncc1Cl` [Compound 193, N-(5-chloro-4-methoxypyridin-2-yl)-2-(6′-cyano-4′-(3-methoxyazetidin-1-yl)-[2,2′-bipyridin]-5-yl)acetamide], the IC50 was more than 0.1 µM. Also, the inhibition at 10 µM (compound at 10 μM) worked out at 68%.

Turning to `COc1cc(NC(=O)Cc2ccc(-c3cc(N4CCC(C)(O)C4)cc(C#N)n3)nc2)ncc1Cl` (stereo not shown) [Compound 194, N-(5-chloro-4-methoxypyridin-2-yl)-2-(6′-cyano-4′-(3-hydroxy-3-methylpyrrolidin-1-yl)-[2,2′-bipyridin]-5-yl)acetamide], the IC50 was more than 0.1 µM. Also, for the setting “compound at 10 μM”, the inhibition at 10 µM came out at 94%.

For `COc1cc(NC(=O)Cc2ccc(-c3cc(N4C[C@H]5CC[C@@H](C4)O5)cc(C#N)n3)nc2)ncc1Cl` [Compound 195, 2-(4′-((1R,5S)-8-oxa-3-azabicyclo[3.2.1]octan-3-yl)-6′-cyano-[2,2′-bipyridin]-5-yl)-N-(5-chloro-4-methoxypyridin-2-yl)acetamide], the concentration for half-maximal inhibition (IC50) lay within 0.01 to 0.1 µM. For the setting “compound at 10 μM”, the inhibition at 10 µM was 84%.

`COc1cc(NC(=O)Cc2ccc(-c3cc(O[C@H]4CCOC4)cc(C#N)n3)nc2)ncc1Cl` [Compound 196, (S)-N-(5-chloro-4-methoxypyridin-2-yl)-2-(6′-cyano-4′-((tetrahydrofuran-3-yl)oxy)-[2,2′-bipyridin]-5-yl)acetamide]: the 50% inhibitory concentration (IC50) lay within 0.01 to 0.1 µM. Also, the inhibition at 10 µM (compound at 10 μM) is 89%.

Consider `COc1cc(NC(=O)Cc2ccc(-c3cc(O[C@H]4CCOC4)cc(C#N)n3)nc2)ncc1Cl` [Compound 197, (S)-N-(5-chloro-4-methoxypyridin-2-yl)-2-(6′-cyano-4′-((tetrahydrofuran-3-yl)oxy)-[2,2′-bipyridin]-5-yl)acetamide], for which the IC50 was in the range of 0.01 to 0.1 µM. Further, under “compound at 10 μM, 10 µM”, the “CDK12 % Inhibition @ 10 μM” value turned out to be 87%.

Turning to `COc1cc(NC(=O)Cc2ccc(-c3cc(OC4CCN(C)CC4F)cc(C#N)n3)nc2)ncc1Cl` (stereo not shown) [Compound 198, N-(5-chloro-4-methoxypyridin-2-yl)-2-(6′-cyano-4′-((3-fluoro-1-methylpiperidin-4-yl)oxy)-[2,2′-bipyridin]-5-yl)acetamide], the IC50 fell in the range of 0.01 to 0.1 µM. The inhibition at 10 µM (compound at 10 μM) amounted to 100%.

For the molecule `COc1cc(NC(=O)Cc2ccc(-c3cc(OC4CCCN(C)C4)cc(C#N)n3)nc2)ncc1Cl` (stereo not shown) [Compound 199, N-(5-chloro-4-methoxypyridin-2-yl)-2-(6′-cyano-4′-((1-methylpiperidin-3-yl)oxy)-[2,2′-bipyridin]-5-yl)acetamide], the IC50 was less than 0.01 µM. For the setting “compound at 10 μM”, the inhibition at 10 µM is 88%.
